Data as given in ChEMBL document CHEMBL3407427, “Discovery of efficacious Pseudomonas aeruginosa-targeted siderophore-conjugated monocarbams by application of a semi-mechanistic pharmacokinetic/pharmacodynamic model” (J Med Chem, 2015).
Values after ≈ are worked out from the molar mass of the structure shown.

How the values were obtained:
[1] = test system: Pseudomonas aeruginosa; assay: Antimicrobial activity against MexABCDXY-deficient Pseudomonas aeruginosa PAO1 ARC546 by broth microdilution method; type: functional
[2] = test system: Pseudomonas aeruginosa; assay: Antimicrobial activity against Pseudomonas aeruginosa PAO1 ARC545 by broth microdilution method; type: functional
[3] = test system: Pseudomonas aeruginosa; assay: Inhibition of Pseudomonas aeruginosa PBP3 acylation activity by BOCILLIN FL-based assay
[4] = Percentage unbound in human plasma at 10 uM after 16 hrs by LC-MS/MS analysis
[5] = Half life in PBS buffer in pH 7.4 by UPLC analysis; type: ADME
[6] = test system: Pseudomonas aeruginosa; assay: Antimicrobial activity against Pseudomonas aeruginosa by broth microdilution method; type: functional
[7] = test system: Escherichia coli; assay: Antimicrobial activity against Escherichia coli by broth microdilution method; type: functional
[8] = test system: Klebsiella pneumoniae; assay: Antimicrobial activity against Klebsiella pneumoniae by broth microdilution method; type: functional
[9] = test system: Acinetobacter baumannii; assay: Antimicrobial activity against Acinetobacter baumannii by broth microdilution method; type: functional
[10] = Clearance in Wistar Han rat at 1 mg/kg, iv infusion; type: ADME, organism-based; parameters: dose 1 mg/kg, route intravenous; conditions: in vivo
[11] = Plasma protein binding in Wistar Han rat as percentage unbound
[12] = Half life in Wistar Han rat at 1 mg/kg, iv infusion; type: ADME, organism-based; parameters: dose 1 mg/kg, route intravenous; conditions: in vivo
[13] = Volume of distribution at steady state in Wistar Han rat at 1 mg/kg, iv infusion; type: ADME, organism-based; parameters: dose 1 mg/kg, route intravenous; conditions: in vivo, read-out: Vdss

| Structure (SMILES) | MIC [1] | MIC [2] | Kinact [3] | fraction unbound at 16 h, 10 µM [4] | half-life [5] | clearance [10] | fraction unbound [11] | half-life [12] | Vd [13] | MIC90 [6] | MIC90 [7] | MIC90 [8] | MIC90 [9] |
| --- | --- | --- | --- | --- | --- | --- | --- | --- | --- | --- | --- | --- | --- |
| C[C@H]1[C@H](NC(=O)/C(=N\OC(C)(C)C(=O)O)c2csc(N)n2)C(=O)N1C(=O)NS(=O)(=O)N1C[C@@H](NC(=O)[C@H](CC(=O)O)NC(=O)c2cc(=O)c(O)c[nH]2)CC1=O | 0.5 µg/mL (≈ 0.615 µM) | 1 µg/mL (≈ 1.23 µM) | 3.8 ×10⁴ /M/s | 0.14 | > 150 h | – | – | – | – | – | – | – | – |
| C[C@H]1[C@H](NC(=O)/C(=N\OC(C)(C)C(=O)O)c2csc(N)n2)C(=O)N1C(=O)NS(=O)(=O)N1C[C@@H](NC(=O)CNC(=O)c2cc(=O)c(O)c[nH]2)CC1=O | 0.25 µg/mL (≈ 0.331 µM) | 2 µg/mL (≈ 2.65 µM) | 2.4 ×10⁴ /M/s | 0.38 | > 150 h | – | – | – | – | – | – | – | – |
| C[C@H]1[C@H](NC(=O)/C(=N\OC(C)(C)C(=O)O)c2csc(N)n2)C(=O)N1C(=O)NS(=O)(=O)N1C[C@@H](NC(=O)[C@H](CCS(C)(=O)=O)NC(=O)c2cc(=O)c(O)c[nH]2)CC1=O | 0.25 µg/mL (≈ 0.29 µM) | 4 µg/mL (≈ 4.65 µM) | 1.8 ×10⁴ /M/s | 0.21 | > 150 h | – | – | – | – | – | – | – | – |
| C[C@H]1[C@H](NC(=O)/C(=N\OC(C)(C)C(=O)O)c2csc(N)n2)C(=O)N1C(=O)NS(=O)(=O)N1C[C@@H](N(C)C(=O)NCc2cc(=O)c(O)cn2O)CC1=O | 0.25 µg/mL (≈ 0.33 µM) | 0.5 µg/mL (≈ 0.661 µM) | 3.1 ×10⁴ /M/s | 0.27 | 19 h | – | – | – | – | – | – | – | – |
| CC(C)(O/N=C(\C(=O)N[C@@H]1C(=O)N(C(=O)NS(=O)(=O)N2C[C@@H](NC(=O)NCc3cc(=O)c(O)cn3O)CC2=O)C1(C)C)c1csc(N)n1)C(=O)O | 1 µg/mL (≈ 1.32 µM) | 8 µg/mL (≈ 10.6 µM) | 8.1 ×10² /M/s | 0.23 | > 150 h | – | – | – | – | – | – | – | – |
| C[C@H]1[C@H](NC(=O)/C(=N\OC(C)(C)C(=O)O)c2csc(N)n2)C(=O)N1C(=O)NS(=O)(=O)N1C[C@@H](NC(=O)[C@H](CN)NC(=O)c2cc(=O)c(O)c[nH]2)CC1=O | 0.5 µg/mL (≈ 0.638 µM) | 4 µg/mL (≈ 5.1 µM) | 9.4 ×10³ /M/s | 0.18 | 51 h | – | – | – | – | – | – | – | – |
| C[C@H]1[C@H](NC(=O)/C(=N\OC(C)(C)C(=O)O)c2csc(N)n2)C(=O)N1C(=O)NS(=O)(=O)N1C[C@@H](NC(=O)[C@@H]2CCCN2C(=O)c2cc(=O)c(O)c[nH]2)CC1=O | 0.5 µg/mL (≈ 0.629 µM) | 8 µg/mL (≈ 10.1 µM) | 1.4 ×10⁴ /M/s | 0.28 | 114 h | – | – | – | – | – | – | – | – |
| C[C@H]1[C@H](NC(=O)/C(=N\OC(C)(C)C(=O)O)c2csc(N)n2)C(=O)N1C(=O)NS(=O)(=O)N1C[C@@H](NC(=O)NCc2cc(=O)c(O)c[nH]2)CC1=O | 1 µg/mL (≈ 1.38 µM) | 16 µg/mL (≈ 22 µM) | 2.4 ×10⁴ /M/s | 0.26 | 30 h | – | – | – | – | – | – | – | – |
| C[C@H]1[C@H](NC(=O)/C(=N\OC(C)(C)C(=O)O)c2csc(N)n2)C(=O)N1C(=O)NS(=O)(=O)Nc1cc(=O)c(O)c[nH]1 | 1 µg/mL (≈ 1.7 µM) | 16 µg/mL (≈ 27.3 µM) | 1.3 ×10⁴ /M/s | 0.23 | 103 h | – | – | – | – | – | – | – | – |
| C[C@H]1[C@H](NC(=O)/C(=N\OC(C)(C)C(=O)O)c2csc(N)n2)C(=O)N1S(=O)(=O)O [AZTREONAM] | 0.25 µg/mL (≈ 0.574 µM) | 4 µg/mL (≈ 9.19 µM) | – | – | – | – | – | – | – | 1020 µg/mL (≈ 2350 µM) | > 512 µg/mL | > 512 µg/mL | > 512 µg/mL |
| C[C@H]1[C@H](NC(=O)/C(=N\OCC(=O)O)c2csc(N)n2)C(=O)N1C(=O)NS(=O)(=O)N1C[C@@H](NC(=O)NCc2cc(=O)c(O)cn2O)CC1=O | 0.13 µg/mL (≈ 0.182 µM) | 4 µg/mL (≈ 5.6 µM) | 3.4 ×10³ /M/s | 0.26 | 87 h | – | – | – | – | – | – | – | – |
| C[C@H]1[C@H](NC(=O)/C(=N\OC(C)(C)C(=O)O)c2csc(N)n2)C(=O)N1C(=O)NS(=O)(=O)N1C[C@@H](NCc2cc(=O)c(O)c[nH]2)CC1=O | 0.5 µg/mL (≈ 0.731 µM) | 8 µg/mL (≈ 11.7 µM) | 5.7 ×10⁴ /M/s | 0.4 | 48 h | – | – | – | – | – | – | – | – |
| C[C@H]1[C@H](NC(=O)/C(=N\OC(C)(C)C(=O)O)c2csc(N)n2)C(=O)N1C(=O)NS(=O)(=O)N1C[C@@H](NC(=O)N(C)Cc2cc(=O)c(O)cn2O)CC1=O | 0.25 µg/mL (≈ 0.33 µM) | 1 µg/mL (≈ 1.32 µM) | 1.9 ×10⁴ /M/s | 0.26 | > 150 h | – | – | – | – | – | – | – | – |
| C[C@H]1[C@H](NC(=O)/C(=N\OC(C)(C)C(=O)O)c2csc(N)n2)C(=O)N1C(=O)NS(=O)(=O)N1N=C(c2cc(=O)c(O)c[nH]2)NCC1=O | 2 µg/mL (≈ 2.99 µM) | 16 µg/mL (≈ 23.9 µM) | 3.8 ×10³ /M/s | – | 40 h | – | – | – | – | – | – | – | – |

These reach a lower MIC [1]. Values come first.

| MIC [1] | MIC [2] | Kinact [3] | fraction unbound at 16 h, 10 µM [4] | half-life [5] | clearance [10] | fraction unbound [11] | half-life [12] | Vd [13] | Structure (SMILES) | MIC90 [6] | MIC90 [7] | MIC90 [8] | MIC90 [9] |
| --- | --- | --- | --- | --- | --- | --- | --- | --- | --- | --- | --- | --- | --- |
| 0.06 µg/mL (≈ 0.0876 µM) | 0.25 µg/mL (≈ 0.365 µM) | 1.4 ×10⁵ /M/s | 0.29 | 41 h | – | – | – | – | CC(C)(O/N=C(\C(=O)NC1CN(C(=O)NS(=O)(=O)N2CCN(NC(=O)c3cc(=O)c(O)c[nH]3)C2=O)C1=O)c1csc(N)n1)C(=O)O (stereo not drawn) [PIRAZMONAM] | – | – | – | – |
| < 0.06 µg/mL | 0.5 µg/mL (≈ 0.649 µM) | 1 ×10⁵ /M/s | 0.45 | > 150 h | – | – | – | – | C[C@H]1[C@H](NC(=O)/C(=N\OC(C)(C)C(=O)O)c2csc(N)n2)C(=O)N1C(=O)NS(=O)(=O)N1C[C@@H](NC(=O)CNC(=O)c2cc(=O)c(O)cn2O)CC1=O | – | – | – | – |
| < 0.06 µg/mL | 0.25 µg/mL (≈ 0.302 µM) | 2 ×10⁵ /M/s | 0.43 | > 150 h | – | – | – | – | C[C@H]1[C@H](NC(=O)/C(=N\OC(C)(C)C(=O)O)c2csc(N)n2)C(=O)N1C(=O)NS(=O)(=O)N1C[C@@H](NC(=O)[C@H](CC(=O)O)NC(=O)c2cc(=O)c(O)cn2O)CC1=O | – | – | – | – |
| < 0.06 µg/mL | 0.5 µg/mL (≈ 0.701 µM) | 3 ×10⁵ /M/s | 0.08 | > 150 h | – | – | – | – | C[C@H]1[C@H](NC(=O)/C(=N\OC(C)(C)C(=O)O)c2csc(N)n2)C(=O)N1C(=O)NS(=O)(=O)N1C[C@@H](NC(=O)c2cc(=O)c(O)cn2O)CC1=O | – | – | – | – |
| < 0.06 µg/mL | 4 µg/mL (≈ 5.54 µM) | 2.3 ×10⁵ /M/s | 0.31 | 117 h | – | – | – | – | C[C@H]1[C@H](NC(=O)/C(=N\OC(C)(C)C(=O)O)c2csc(N)n2)C(=O)N1C(=O)NS(=O)(=O)N1C[C@@H](n2cc(-c3cc(=O)c(O)c[nH]3)nn2)CC1=O | – | – | – | – |
| < 0.06 µg/mL | 1 µg/mL (≈ 1.46 µM) | 4.6 ×10⁴ /M/s | 0.33 | > 150 h | – | – | – | – | C[C@H]1[C@H](NC(=O)/C(=N\OC(C)(C)C(=O)O)c2csc(N)n2)C(=O)N1C(=O)NS(=O)(=O)N1CC[C@H](NC(=O)c2cc(=O)c(O)c[nH]2)C1 | – | – | – | – |
| < 0.06 µg/mL | 1 µg/mL (≈ 1.43 µM) | 1.5 ×10⁵ /M/s | 0.24 | > 150 h | 16 mL/min/kg | 0.06 | 0.34 h | 0.44 L/kg | C[C@H]1[C@H](NC(=O)/C(=N\OC(C)(C)C(=O)O)c2csc(N)n2)C(=O)N1C(=O)NS(=O)(=O)N1C[C@@H](NC(=O)c2cc(=O)c(O)c[nH]2)CC1=O | 2 µg/mL (≈ 2.87 µM) | 32 µg/mL (≈ 45.9 µM) | 32 µg/mL (≈ 45.9 µM) | > 64 µg/mL |
| < 0.06 µg/mL | 8 µg/mL (≈ 11.7 µM) | 2.4 ×10⁴ /M/s | 0.26 | > 150 h | – | – | – | – | C[C@H]1[C@H](NC(=O)/C(=N\OC(C)(C)C(=O)O)c2csc(N)n2)C(=O)N1C(=O)NS(=O)(=O)N1CCN(C(=O)c2cc(=O)c(O)c[nH]2)CC1 | – | – | – | – |
| < 0.06 µg/mL | 8 µg/mL (≈ 13.3 µM) | 2.5 ×10⁴ /M/s | 0.61 | > 150 h | – | – | – | – | C[C@H]1[C@H](NC(=O)/C(=N\OC(C)(C)C(=O)O)c2csc(N)n2)C(=O)N1C(=O)NS(=O)(=O)NCc1cc(=O)c(O)c[nH]1 | – | – | – | – |
| < 0.06 µg/mL | 0.5 µg/mL (≈ 0.717 µM) | 3.5 ×10⁵ /M/s | 0.25 | > 150 h | – | – | – | – | C[C@H]1[C@H](NC(=O)/C(=N\OC(C)(C)C(=O)O)c2csc(N)n2)C(=O)N1C(=O)NS(=O)(=O)N1C[C@H](NC(=O)c2cc(=O)c(O)c[nH]2)CC1=O | – | – | – | – |
